{"source": "paper PMC6219988", "about": "(Biochemistry, 2018)", "tested_on": "PTP1B", "experiment": "PTP1B-catalyzed hydrolysis of pNPP in the presence of inhibitors", "type": "biochemical", "conditions": "IC50 at 20 mM pNPP"}
{"molecule": "CC(C)C1C=C2CCC3C(C)(C(=O)O)CCCC3(C)C2CC1", "note": "(single isomer, unassigned; diaa) [DiAA, dihydroabietic acid]", "values": [{"measurement": "potency (IC50) relative to AA", "setting": "ratio vs AA", "result": 3, "unit": "fold"}, {"measurement": "potency (IC50) relative to DeAA", "setting": "ratio vs DeAA", "result": 7, "unit": "fold"}]}
